In patent US11446402B2, “Composition for material delivery, including exosome mimetics derived from red blood cells, and use thereof” (Kyungpook National University Industry—Academic Cooperation …, priority 2018, dated 2022):

Experiments:
[1] = In vivo gamma camera imaging after tail vein infusion; parameters: species or system C57BL/6 mice
Protocol: In vivo gamma camera imaging was performed on 5-week-old male C57BL/6 mice (Hamamatsu, Shizuoka). The gamma camera images were captured and taken for 10 min using a 2 mm pinhole collimator (Infinia II, GE Healthcare, Milwaukee, Wis., USA). A 200 μl volume of 37 MBq ^99mTC-RBC-EM was infused into the tail vein of mice. As a control, the same amount of free ^99mTc was infused. During the imaging, mice were continuously anesthetized using 2.5% isoflurane (Merial, Lyon, France). The gamma camera images were obtained by capturing the gamma camera images 1 hour and 3 hours after infusing ^99mTc-RBC-EM and free ^99mTc.
The region of interests (ROIs) in mice into which free ^99mTc was infused were the thyroid gland and the stomach, and the region of interests (ROIs) in mice into which ^99mTc-RBC-EM was infused were the thyroid gland and the liver/spleen. The right thigh part was used as a control of ROI. The average ROI count per pixel was calculated by dividing the same mice by the control ROI.

[2] = system: 8505C cells; test: Labeling of tumor cells with ^99mTc, uptake by gamma-counter; type: cell-based, human; conditions: 4 μCi
Protocol: A human atypical thyroid carcinoma 8505C cell line (Deutsche Sammlung von Mikroorganismen and Zellkulturen (DSMZ)) was cultured under a humidified atmosphere of 5% CO2 at 37° C. in Dulbecco's Modified Eagle Medium (DMEM, Invitrogen, Grand Island, N.Y., USA) supplemented with 10% fetal bovine serum (FBS), 10 U/ml penicillin, and 10 μg/ml streptomycin (Invitrogen). The 8505C cells were cultured together with ^99mTc-RBC-EM with various doses (0, 1, 2, and 4 μCi). 24 hours later, free ^99mTc-RBC-EM, which had not been absorbed in cells, were washed using PBS. Thereafter, the 8505C cells were cultured in a 20% FBS solution in a 37° C. CO2 incubator for 1, 6, 12, and 18 hours. The uptake values were measured by a gamma-counter (Cobra II, 1 Hewlett Packard, USA) at all the time points, and the amount of radiation measured was shown as a count per minute (cpm) unit. In order to compare the aforementioned results with the results of ^99mTc-RBC-EM (4 μCi), it was measured whether tumor cells were labeled with ^99mTc-RBC-EM using free ^99mTc (4 μCi).

Compound: [99Tc] [free ^99mTc, technetium-99m]
- organs of uptake in gamma camera image ([1]; 1 hour after injection, intravenous): strong uptake of free ^99mTc in the thyroid gland, the stomach, and the bladder
- uptake in regions of interest 3 hours after the infusion compared to 1 hour ([1]; free ^99mTc: thyroid gland and stomach, ^99mTc-RBC-EM: thyroid gland, liver, spleen): significantly (P<0.001) increased
- absorption in 8505C cells [2]: rarely absorbed
- absorption in 8505C cells as the time is increased [2]: not increased
